Test results as given in PMC6986439, “Sultiame pharmacokinetic profile in plasma and erythrocytes after single oral doses: A pilot study in healthy volunteers” (Pharmacology Research & Perspectives, 2020).
Where two headings read alike, the source gives them in different places.

Assay: Noncompartmental pharmacokinetics after single oral doses in healthy volunteers
Type: in vivo, human
Settings: for half-life / Cmax / AUC / Tmax / CL renal: male, human; for AUC: read-out: AUC(0‐inf); for Tmax: read-out: Median tmax (range); for CL renal / Recovery unchanged: urine; for CL renal: read-out: Renal clearance (converted)
Excerpt: Eligible subjects for the clinical study were healthy adult male volunteers aged 18‐45 years, with a body weight ranging between 55 and 95 kg and a body mass index of 18‐29 kg/m^2. Subjects with a history or evidence of clinically significant diseases or interfering conditions were excluded. Other exclusion criteria included: history of any clinically significant laboratory value including serology for hepatitis and HIV, relevant alcohol or drug abuse, recent acute illness, or use of any medication the week prior to study.
Single oral doses of 50, 100, and 200 mg of sultiame (Ospolot®, immediate‐release coated tablets) were administered in fasting conditions, in open‐label, during periods 1, 2, and 3, respectively, at 4‐6 weeks interval. On each period, serial plasma and whole blood samples were collected predose, then at 15, 30 min, 1, 2, 3, 4, 5, 6, 8, 10, 24, 48, 72 168, 336, and 504 hours postdose. Plasma and whole blood samples were stored at − 80°C until analysis. Hematocrit was measured using a microhematocrit centrifuge machine (Haematokrit 200®, Hettich AG, Bäch, Switzerland) on each occasion to calculate intraerythrocytic concentrations. Urine PK samples were collected in 6 fractions, before dosing, from 0‐2, 2‐4, 4‐8, 8‐10, and 10‐24 hours postdose. Urine pH was measured on each fraction.
The quantification of sultiame in whole blood, plasma, and urine was performed using a high‐performance liquid chromatography coupled to tandem triple quadrupole mass spectrometry (LC‐MS/MS) method developed and validated purposely for the trial. Briefly, 300 µL of methanol (MeOH) containing the internal standard (IS) sultiame‐D4 (Toronto Research Chemicals, Canada) was added to 100 µL of human plasma, hemolyzed whole blood, or hemolyzed red blood cells, for protein precipitation. Urine samples were processed similarly. After vortex, sonication for 30 seconds, and centrifugation steps, 250 µL of supernatant was transferred into a glass vial with insert, followed by dilution with 250 µL of pure water and a final vortex step, prior to LC‐MS/MS analysis. Chromatographic analyses were carried out on a XSelect HSS T3 column (Waters, Milford, MA, USA) using a water‐acetonitrile gradient over 5 minutes. Detection was performed with a triple quadrupole mass spectrometer (TSQ Quantum Ultra, ThermoFisher Scientific, Waltham, MA, USA) using the m/z transitions 289.0 → 225.1 for sultiame, and 293.0 → 229.1 for sultiame‐D4. Lower limits of detection and quantification of the method were 0.001 and 0.01 µg/mL, respectively, with a dynamic range extending up to 50 µg/mL. […] Deviations from nominal concentration (inaccuracy) of internal QCs were comprised within − 1.9 to + 11.7% over the calibration range. […] Metabolites, whose chemical structure is still elusive, were not determined.
Erythrocytic concentrations (Cery) were deduced from whole blood and plasma measurements as: Cery=Cwhole blood-Cplasma·1-Ht/Ht
Plasma, whole blood, and urine sultiame PK parameters were first computed for each volunteer using standard noncompartmental calculations with Stata® (version 13, StataCorp. 2013, Stata Statistical Software, College Station TX, USA).
The area under the curve for a single dose (AUC0‐inf) was calculated using the log trapezoidal rule with extrapolation to infinity. The terminal rate constant ( λz ) was derived from a two‐exponential model curve. CL/F was calculated as the dose divided by AUC0‐inf, the half‐life (t1/2) as ln(2)/ λz , and V/F as (CL/F)/ λz .

[1] = plasma, single oral dose 50 mg, n = 4, geometric mean (CV%)
[2] = plasma, single oral dose 100 mg, n = 4, geometric mean (CV%)
[3] = plasma, single oral dose 200 mg, n = 4, geometric mean (CV%)
[4] = single oral dose 50 mg, n = 4, geometric mean (CV%)
[5] = single oral dose 100 mg, n = 4, geometric mean (CV%)
[6] = single oral dose 200 mg, n = 4, geometric mean (CV%)
[7] = whole blood, single oral dose 50 mg, n = 4, geometric mean (CV%)
[8] = whole blood, single oral dose 100 mg, n = 4, geometric mean (CV%)
[9] = whole blood, single oral dose 200 mg, n = 4, geometric mean (CV%)

increase in plasma Cmax for each doubling of dose (between dose levels 50, 100, 200 mg): 10 fold | increase in urinary recovery of unchanged sultiame (between the 50 and 200 mg doses): about 10 fold | half-life (whole blood, oral, noncompartmental, highest observed, read-out: whole blood t1/2): ≤ 312 h | Cmax [1]: 20 ng/mL | AUC [1]: 1.24 µg·h/mL | half-life (plasma, single oral dose 50 mg, n = 4, geometric mean (CV%), read-out: t1/2 (converted)): 50.8 h | Tmax (plasma, single oral dose 50 mg, n = 4): 7 h | Cmax [2]: 180 ng/mL | AUC [2]: 8.57 µg·h/mL | half-life (plasma, single oral dose 100 mg, n = 4, geometric mean (CV%), read-out: t1/2 (converted)): 90.9 h | Tmax (plasma, single oral dose 100 mg, n = 4): 2 h | Cmax [3]: 1880 ng/mL | AUC [3]: 24 µg·h/mL | half-life (plasma, single oral dose 200 mg, n = 4, geometric mean (CV%), read-out: t1/2 (converted)): 40 h | Tmax (plasma, single oral dose 200 mg, n = 4): 1.5 h | CL renal [4]: 2.83 mL/min | CL renal [5]: 2.33 mL/min | CL renal [6]: 2.17 mL/min | Cmax [7]: 7910 ng/mL | AUC [7]: 3320 µg·h/mL | half-life (whole blood, single oral dose 50 mg, n = 4, geometric mean (CV%), read-out: t1/2 (converted)): 313 h | Tmax (whole blood, single oral dose 50 mg, n = 4): 3 h | Cmax [8]: 15900 ng/mL | AUC [8]: 4540 µg·h/mL | half-life (whole blood, single oral dose 100 mg, n = 4, geometric mean (CV%), read-out: t1/2 (converted)): 233 h | Tmax (whole blood, single oral dose 100 mg, n = 4): 5.01 h | Cmax [9]: 17200 ng/mL | AUC [9]: 4530 µg·h/mL | half-life (whole blood, single oral dose 200 mg, n = 4, geometric mean (CV%), read-out: t1/2 (converted)): 253 h | Tmax (whole blood, single oral dose 200 mg, n = 4): 2.5 h | CL/F [1]: 40.4 (93) L/h | V/F [1]: 2964 (21) L | CL/F [2]: 11.7 (25) L/h | V/F [2]: 1529 (21) L | CL/F [3]: 8.3 (26) L/h | V/F [3]: 480 (26) L | Recovery unchanged [4]: 1.61 (17) % | Recovery unchanged [5]: 5.24 (111) % | Recovery unchanged [6]: 16.73 (36) % | CL/F [7]: 0.015 (37) L/h | V/F [7]: 6.8 (21) L | CL/F [8]: 0.008 (34) L/h | V/F [8]: 7.4 (21) L | CL/F [9]: 0.044 (41) L/h | V/F [9]: 16.2 (27) L
SMILES: NS(=O)(=O)c1ccc(N2CCCCS2(=O)=O)cc1 [Sultiame]
